These results are taken from ChEMBL document CHEMBL1201862, “PubChem BioAssay data set” (2004).

Some test systems named below: 786-0; A549; BT-549; CAKI-1; CCRF-CEM; COLO 205; HCC 2998; HCT-116; HT-29; M14; MOLT-4; Malme-3M; OVCAR-3; PC-3; RPMI-8226; SF-295; SNB-19; SW-620; MDA-MB-231; NCI-H226.
What all share (experiment): inhibition of tumour cell growth, NCI panel, 48 h

Each structure is given as a SMILES string.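 Five compound concentrations were applied to cells in 96-well plates for 48 hours; endpoints were derived by simple linear interpolation of the resulting dose-response curve. Here, GI50 denotes the concentration required for 50% inhibition of growth.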 Calls of active or inactive are those of the source. Cut-off read from the data, not from the text of the source: active = GI50 up to about 1.1 µM and inactive = higher.

Consider `O=C(Cn1c2c(c3ccccc31)CCCC2)NC1CCCCC1`, for which the GI50 is 69.8 µM (inactive) in the experiment on 786-0; > 100 µM (inactive) in the experiment on A549; > 100 µM (inactive) in the experiment with BT-549; > 100 µM (inactive) in the experiment with CAKI-1; > 100 µM (inactive) in the experiment with CCRF-CEM; > 100 µM (inactive) in the experiment on COLO 205. For the same compound, the GI50 with HCC 2998 is > 100 µM (inactive); with HCT-116 it was > 100 µM (inactive); with HT-29, > 100 µM (inactive); in the experiment with M14 it was > 100 µM (inactive); in the experiment with MOLT-4, > 10 µM (inactive); in the experiment with Malme-3M it was > 100 µM (inactive). Further, the GI50 was 96.4 µM (inactive) in the experiment with OVCAR-3; 88.7 µM (inactive) in the experiment with PC-3; > 100 µM (inactive) with RPMI-8226; 51.3 µM (inactive) with SF-295; > 100 µM (inactive) with SNB-19; > 100 µM (inactive) with SW-620.

As for `Nc1ncnc2c1ncn2C1OC(CO)C2OC21` (stereo unspecified), the GI50 in the experiment on 786-0 was > 10 µM (inactive); in the experiment with A549 it was > 100 µM (inactive); in the experiment with CAKI-1, > 100 µM (inactive); in the experiment on CCRF-CEM it was > 100 µM (inactive); in the experiment with COLO 205, > 100 µM (inactive); in the experiment with HCC 2998 it was > 100 µM (inactive). Further, the GI50 in the experiment on HCT-116 was > 100 µM (inactive); in the experiment on HT-29 it was > 100 µM (inactive); with M14 it was > 10 µM (inactive); with MDA-MB-231, > 100 µM (inactive); in the experiment with MOLT-4 it was > 100 µM (inactive); with Malme-3M, > 10 µM (inactive). For the same compound, the GI50 is > 100 µM (inactive) with NCI-H226; > 10 µM (inactive) with OVCAR-3; > 100 µM (inactive) in the experiment with PC-3; > 100 µM (inactive) with RPMI-8226; > 100 µM (inactive) with SF-295; > 100 µM (inactive) in the experiment with SNB-19. In addition, the GI50 in the experiment with SW-620 was > 100 µM (inactive).

As to `O=C1CCC2(CC1CC[S+]([O-])c1ccccc1)OCCO2` (stereo unspecified), the GI50 in the experiment on 786-0, in the experiment on A549, with CAKI-1, with CCRF-CEM, in the experiment with COLO 205 and with HCC 2998 was > 100 µM (inactive) throughout. The GI50 in the experiment with HT-29, in the experiment with M14, in the experiment on MDA-MB-231, with MOLT-4, in the experiment with Malme-3M and with NCI-H226 was > 100 µM (inactive) throughout. The GI50 in the experiment on OVCAR-3, in the experiment on PC-3, with RPMI-8226, in the experiment with SF-295, in the experiment with SNB-19 and in the experiment with SW-620 was > 100 µM (inactive) each time.

On to `CCc1c(CNC2=NCCN2)c(CC)c(CNC2=NCCN2)c(CC)c1CNC1=NCCN1`, for which the GI50 in the experiment with 786-0, with A549, with BT-549, with CAKI-1, in the experiment with CCRF-CEM and with COLO 205 was > 100 µM (inactive) in each case. In addition, the GI50 in the experiment on HCC 2998, with HCT-116, in the experiment on HT-29, in the experiment on M14, in the experiment on MOLT-4 and with Malme-3M was > 100 µM (inactive) each time. Also, the GI50 in the experiment with NCI-H226, in the experiment on OVCAR-3, in the experiment with PC-3, in the experiment on RPMI-8226, in the experiment with SF-295 and with SNB-19 was > 100 µM (inactive) each time. Also, the GI50 in the experiment with SW-620 was > 100 µM (inactive).

For `NC(=O)C(=CN1C(=O)CC(=O)NC1=S)C(N)=O`, the GI50 in the experiment on 786-0, with A549, in the experiment with BT-549, in the experiment with CAKI-1, with COLO 205 and in the experiment with HCC 2998 was > 100 µM (inactive) each time. The GI50 with HCT-116, in the experiment on HT-29, with M14, in the experiment on MDA-MB-231, in the experiment with MOLT-4 and in the experiment on NCI-H226 was > 100 µM (inactive) throughout. The GI50 with OVCAR-3, in the experiment with SF-295, with SNB-19 and with SW-620 was > 100 µM (inactive) in each case.

With `O=C1c2c(ccc3c2CCC3)CC12Cc1ccccc1C2`, the GI50 in the experiment on 786-0 is 20.7 µM (inactive); in the experiment with A549, 22.3 µM (inactive); with CAKI-1 it was 5.94 µM (inactive); with CCRF-CEM it was 11.4 µM (inactive); in the experiment on COLO 205, 16.6 µM (inactive); in the experiment on HCC 2998, 22 µM (inactive). For the same compound, the GI50 in the experiment on HCT-116 is 5.92 µM (inactive); in the experiment with HT-29, 9.08 µM (inactive); in the experiment with M14, 19.8 µM (inactive); with MDA-MB-231, 22.4 µM (inactive); in the experiment on MOLT-4, 5.04 µM (inactive); with Malme-3M it was 18.9 µM (inactive). For the same compound, the GI50 in the experiment on NCI-H226 was 18 µM (inactive); with OVCAR-3 it was 17.7 µM (inactive); in the experiment on PC-3 it was 25.1 µM (inactive); in the experiment with RPMI-8226, 7.38 µM (inactive); in the experiment with SF-295 it was 91.4 µM (inactive); in the experiment with SNB-19, 33.7 µM (inactive). The GI50 with SW-620 was 8.41 µM (inactive).

As for `CCN(CCCl)c1cc(CN(C)C)cc(NC(=O)c2ccc(C(=O)Nc3ccccc3)cc2)c1`, the GI50 in the experiment on 786-0 is 0.21 µM (active); in the experiment with A549, 0.42 µM (active); in the experiment on CAKI-1, 0.65 µM (active); with CCRF-CEM it was 0.27 µM (active); in the experiment with COLO 205, 1.04 µM (active); with HCC 2998, 0.789 µM (active). For the same compound, the GI50 is 0.424 µM (active) with HCT-116; 0.174 µM (active) in the experiment on HT-29; 0.883 µM (active) with M14; 1.3 µM (inactive) in the experiment on MDA-MB-231; 0.284 µM (active) in the experiment with MOLT-4; 0.191 µM (active) with Malme-3M. Also, the GI50 in the experiment on NCI-H226 was 1.53 µM (inactive); with PC-3, 0.34 µM (active); in the experiment on RPMI-8226, 0.307 µM (active); with SF-295, 0.348 µM (active); in the experiment on SNB-19 it was 0.676 µM (active); in the experiment with SW-620, 0.15 µM (active).

Turning to `C[S+](C)C1(c2ccccc2)C(=O)c2ccccc2C1=O`, the GI50 was > 100 µM (inactive) in the experiment on 786-0; 36.4 µM (inactive) with A549; 11.8 µM (inactive) with BT-549; > 100 µM (inactive) in the experiment on CAKI-1; > 46.9 µM (inactive) in the experiment on CCRF-CEM; > 100 µM (inactive) in the experiment on COLO 205. Also, the GI50 was 17.7 µM (inactive) in the experiment on HCC 2998; > 54.3 µM (inactive) in the experiment with HCT-116; > 100 µM (inactive) with HT-29; > 59.6 µM (inactive) with M14; > 83.2 µM (inactive) with MOLT-4; > 100 µM (inactive) with Malme-3M. Moreover, the GI50 in the experiment on NCI-H226 is 48 µM (inactive); in the experiment with OVCAR-3, > 55.1 µM (inactive); in the experiment with PC-3 it was 76.2 µM (inactive); with RPMI-8226 it was > 62.1 µM (inactive); in the experiment on SF-295, 36.1 µM (inactive); in the experiment on SNB-19 it was 39 µM (inactive). In addition, the GI50 in the experiment on SW-620 was > 100 µM (inactive).
